Measured values published in publication PMC5522078, “Discovery and characterization of small molecules targeting the DNA-binding ETS domain of ERG in prostate cancer” (Oncotarget, 2017).

Tests used:
ERG-DNA complex = biological target: T1, ERG-DNA complex (Homo sapiens, UniProt P11308); assay: EMSA with VCaP nuclear lysate; assay type: binding; conditions: 55 ng/μl nuclear extract, 4 μM to 8 mM
T1 construct: VCaP (endogenous overexpression); endogenous in cells; host or cells: VCaP (whole cells for A2 and A17; nuclear extract for A16)
T1 sequence (P11308 33-479 limits assumed): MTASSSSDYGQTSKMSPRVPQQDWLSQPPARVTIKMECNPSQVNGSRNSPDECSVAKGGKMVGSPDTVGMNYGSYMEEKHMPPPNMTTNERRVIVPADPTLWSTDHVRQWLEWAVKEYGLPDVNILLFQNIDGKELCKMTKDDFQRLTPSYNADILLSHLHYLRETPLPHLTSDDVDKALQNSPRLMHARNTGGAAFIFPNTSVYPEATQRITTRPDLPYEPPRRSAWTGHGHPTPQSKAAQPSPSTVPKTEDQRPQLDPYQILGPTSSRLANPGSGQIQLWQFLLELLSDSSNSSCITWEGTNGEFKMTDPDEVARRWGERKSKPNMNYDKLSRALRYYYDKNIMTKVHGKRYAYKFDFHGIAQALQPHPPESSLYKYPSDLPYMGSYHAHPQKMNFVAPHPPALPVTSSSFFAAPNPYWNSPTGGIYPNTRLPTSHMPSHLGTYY
Description: For experiments involving ERG from VCaP cells, VCaP nuclear protein was extracted using CelLytic NuCLEAR Extraction Kit (Sigma). […] For subsequent assays, 55 ng/μl of the nuclear extract was mixed with 1 nM of fluorophore-labeled dsDNA, titrated with VPC-18005 (diluted from a DMSO stock) and analyzed by the same EMSA protocol.

androgen receptor = biological target: T2, androgen receptor (Homo sapiens, UniProt P10275); assay: Androgen receptor luciferase reporter (ARR3tk-luc) assay; assay type: cell-based; conditions: PC3 cells transfected with AR; 1 nM R1881; 1, 5 or 10 μM
T2 construct: expressed in transfected cells; host or cells: PC3
T2 sequence (P10275 1-920): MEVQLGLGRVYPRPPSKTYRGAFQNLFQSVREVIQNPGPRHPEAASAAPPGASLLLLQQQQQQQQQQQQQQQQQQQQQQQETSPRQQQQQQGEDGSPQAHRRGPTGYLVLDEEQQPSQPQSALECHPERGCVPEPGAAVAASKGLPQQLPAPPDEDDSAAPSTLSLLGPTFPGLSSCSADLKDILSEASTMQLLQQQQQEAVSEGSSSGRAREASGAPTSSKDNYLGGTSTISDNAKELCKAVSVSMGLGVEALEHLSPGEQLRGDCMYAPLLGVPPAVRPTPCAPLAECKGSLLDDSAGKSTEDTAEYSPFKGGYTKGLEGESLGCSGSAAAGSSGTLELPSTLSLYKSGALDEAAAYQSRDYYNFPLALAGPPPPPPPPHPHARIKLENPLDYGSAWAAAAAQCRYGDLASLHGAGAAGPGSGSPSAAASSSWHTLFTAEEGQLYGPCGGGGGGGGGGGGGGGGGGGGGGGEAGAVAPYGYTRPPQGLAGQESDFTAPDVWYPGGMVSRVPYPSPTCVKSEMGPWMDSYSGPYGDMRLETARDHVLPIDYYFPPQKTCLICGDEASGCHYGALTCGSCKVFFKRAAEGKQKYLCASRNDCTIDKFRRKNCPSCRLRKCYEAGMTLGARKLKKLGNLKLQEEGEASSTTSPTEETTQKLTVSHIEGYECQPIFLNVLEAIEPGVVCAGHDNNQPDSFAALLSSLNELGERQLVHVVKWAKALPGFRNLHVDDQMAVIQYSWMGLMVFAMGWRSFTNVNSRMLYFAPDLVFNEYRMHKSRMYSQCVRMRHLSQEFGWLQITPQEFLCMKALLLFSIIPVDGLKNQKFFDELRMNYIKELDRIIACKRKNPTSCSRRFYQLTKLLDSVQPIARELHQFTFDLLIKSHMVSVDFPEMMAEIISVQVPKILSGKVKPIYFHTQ
Description: All of the compounds selected from the virtual screening were tested in a luciferase-based ERG-responsive reporter assay, using two ERG-overexpressing cell lines, VCaP and PNT1B-ERG, previously developed in house. […] Data were normalized first to Renilla luciferase and then to the DMSO-media control on each plate, unless otherwise stated. Initial hit compounds were identified as those with an average normalized luciferase reading (firefly luciferase/Renilla luciferase readings) that is 60% or less of the average normalized luciferase reading of the DMSO-media control (i.e. 40% or more reduction of luciferase activity) at 10 μM. Representative example of raw Renilla luciferase readings presented in Supplementary Figure 9B. […]
Supplementary Figure 3: VPC-18005 selectively suppresses ERG-mediated transcriptional activity. […] Data are presented as the mean ± SEM of 4 technical replicates and expressed as luciferase:renilla ratio (activity).
(B) Luciferase assay was performed on VCaP cells transfected with ETS responsive luciferase reporter and treated with DMSO (0) or 0.1, 1, or 10 nM R1881 in the presence of 25 μM of VPC-18005. Data are presented as the mean ± SEM of 4 technical replicates and expressed as the luciferase:renilla ratio relative to VPC-18005 alone. […]

ETS domain of ETV4 = biological target: T3, ETS domain of ETV4 (Homo sapiens, UniProt P43268); assay: Preliminary NMR spectroscopic experiments, ETV4; assay type: binding
T3 sequence (P43268 341-421 limits assumed): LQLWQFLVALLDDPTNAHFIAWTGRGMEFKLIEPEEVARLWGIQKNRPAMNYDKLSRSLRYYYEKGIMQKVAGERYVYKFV

ETS domain of PU.1 = ETS domain of PU.1 (Homo sapiens, UniProt P17947); assay: Preliminary NMR spectroscopic experiments, PU.1; assay type: binding

Question: How did the “Disruption of ERG-DNA complex formation, VCaP nuclear lysate” value (ERG-DNA complex) turn out when `CC(C)c1ccc(C=N/N=C2\NC(=O)[C@@H](CC(=O)O)S2)cc1` (stereo in doubt) [VPC-18005, 2-((Z)-2-(((Z)-4-isopropylbenzylidene)hydrazono)-4-oxothiazolidin-5-yl)acetic acid] was run?
Answer: Its value is “disrupted ERG-DNA complex formation”.

Question: What about the “Effect on androgen receptor luciferase reporter (ARR3tk-luc) expression” value (androgen receptor) of the same molecule?
Answer: The value was “no significant effect”.

Question: What about the “Interaction with the ETS domain of ETV4” value (ETS domain of ETV4) of the same molecule?
Answer: The value was “interacts”.

Question: What about the “Interaction with the ETS domain of PU.1” value (ETS domain of PU.1) of the same molecule?
Answer: Its value is “interacts”.
